The values below are quoted from earlier work in patent US20060014801A1, “Prevention and treatment of cognitive impairment using (R)-(-)-5-methyl-1-nicotynoyl-2-pyrazoline (MNP) and analogs” (The Johns Hopkins University, priority 2002, published 2006).

The structures appear in SMILES notation.

The series deals with aged rats. The conditions noted are these: cited from earlier work.

With `CO/N=C(\C(=O)N[C@@H]1C(=O)N2C(C(=O)O)=C(CSc3nc(=O)c(=O)[nH]n3C)CS[C@H]12)c1csc(N)n1` [ceftriaxone], the Cognitive function result is listed as “improvements of cognitive function”.
